Reference: patent US20090233871A1, “Complexed polypeptide and adjuvant for improved vaccines” (priority 2004, published 2009)

How the values were obtained:
[1] = system: CD8+ CTLs, T2 stimulators pulsed with polypeptide; type: in vivo, HLA-A2 transgenic mice; settings: 100 μg CpG, equimolar CpG:peptide, s.c., day 10 (FIG. 8)
IFNγ-secreting CD8+ CTLs = assay: primary IFNγ Elispot of CD8+ CTLs from mice primed with peptide plus CpG; settings: 100 μg polypeptide + 100 μg CpG + 10 μg MPL-AF s.c., spleens day 10

Question: How did the “priming on addition of a KCSRNR amino acid sequence vs native polypeptide” value [1] turn out when KTWGQYWQV was run?
Answer: increased priming

Question: With “LTFNYRNL (Synthetically generated peptide) [H60]” as the sequence, how does the “frequencies of IFNγ-secreting CTLs (priming efficiency)” value (IFNγ-secreting CD8+ CTLs) read?
Answer: most inefficient
